From patent US4952589A, “Pyridine compounds” (priority 1984, dated 1990)
Like-named read-outs stand apart in the source and are kept apart here.

How the values were obtained:
[1] = target: T1, histamine H2 -receptor (Cavia porcellus, UniProt P47747); experiment: Inhibition of histamine-induced tachycardia in the isolated guinea-pig right atrium; assay type: cell-based
T1 construct: a spontaneously beating isolated portion of the guinea pig right atrium; from tissue; host or cells: guinea pig right atrium
T1 sequence (P47747 whole entry): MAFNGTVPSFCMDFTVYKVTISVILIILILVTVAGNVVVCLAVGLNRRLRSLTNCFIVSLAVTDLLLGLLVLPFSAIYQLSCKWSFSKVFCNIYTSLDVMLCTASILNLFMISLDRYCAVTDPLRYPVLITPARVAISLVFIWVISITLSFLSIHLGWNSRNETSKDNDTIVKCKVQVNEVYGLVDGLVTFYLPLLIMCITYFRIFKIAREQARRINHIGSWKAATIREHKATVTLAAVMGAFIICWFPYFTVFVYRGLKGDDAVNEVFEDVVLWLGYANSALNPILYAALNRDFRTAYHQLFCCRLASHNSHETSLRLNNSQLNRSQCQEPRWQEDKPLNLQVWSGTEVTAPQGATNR
Procedure: In the guinea pig atrium test a spontaneously beating isolated portion of the guinea pig right atrium is secured under tension (300 mg) between an anchorage and a transducer in a 15 ml tissue bath and immersed in McEwens solution with constant aeration at a temperature of 37° C. The output from the transducer is amplified. Output is in turn fed to a flat bed recorder. Measured amounts of histamine are added to the tissue bath so that the histamine concentration increases step-wise until the rate of beating reaches a maximum. The tissue bath is washed out and filled with fresh McEwens solution containing compound under test. The solution is left in contact with the tissue for 60 min. and measured amounts of histamine are added again until a maximum rate is recorded. The assay is repeated with increasing concentrations of test compound and the dose of histamine giving 50% of maximum rate is noted. A dose ratio (DR) was calculated by comparing the concentrations of histamine required to produce 50% maximum response in the absence and in the presence of the antagonist. A plot of Log DR-1 against LOG D (the concentration of compound under test) is made and the point of intersection with the Log (DR-1) ordinate is taken as the measure of the activity (pA2 value).

[2] = target: T2, brain histamine H2 -receptor (Cavia porcellus, UniProt P47747); experiment: Inhibition of 3H-tiotidine binding to guinea pig cerebral cortex membranes
T2 construct: from tissue; host or cells: guinea pig cerebral cortex membranes
T2 sequence (P47747 whole entry): as above

[3] = target: T2, brain histamine H2 -receptor; experiment: Inhibition of dimaprit stimulated cyclic AMP accumulation in guinea pig hippocampal slices; assay type: cell-based
[4] = test system: maximal electroshock seizures; experiment: Anticonvulsant activity: maximal electroshock seizures in mice; assay type: in vivo; conditions: subcutaneously
[5] = test system: leptazol-induced tonic extensor spasm; experiment: Anticonvulsant activity: leptazol (pentylenetetrazol)-induced convulsions in mice; assay type: in vivo; conditions: subcutaneously, dose-dependent (stated for Examples 5 and 6)
[6] = test system: pial artery dilatation induced by histamine; experiment: Cat pial artery in situ: antagonism of dilatation induced by perivascularly applied histamine; assay type: in vivo
[7] = physchem; conditions: octanol/water
[8] = Δ log P (log P octanol/water minus log P cyclohexane/water)
[9] = Blood-brain barrier penetration in urethane-anaesthetised rats (radiolabelled compound, infusion); conditions: rat, intravenous bolus then infusion, approximately 2 μM blood concentrations, at least 2 hours; separate determinations
Procedure: The levels of compound and inulin in the blood are monitored and the infusion maintained for at least 2 hours until equilibria (or at least approximate blood plateaux) are achieved. The rat is exsanguinated to minimise blood contamination of the brain. […] The tissues are weighed and then dissolved in a tissue solubiliser, e.g. Soluene-100 overnight at 37° C. in glass vials. […] Glacial acetic acid is added to each vial in order to neutralise the soluene and reduce chemiluminescence. Dimilume-30 (15 ml) is added as the scintillant and the vials left for 12 hours in the scintillation counter in order to further reduce chemiluminescence prior to counting for activity.

[10] = test system: pial artery dilatation induced by histamine; conditions: cat, locally applied; Wahl & Kuschinsky; cited from earlier work
[11] = test system: maximal electroshock seizures; conditions: mice; cited from earlier work
[12] = test system: leptazol-induced tonic extensor spasm; conditions: mice; cited from earlier work
[13] = test system: bicuculline injection induced convulsions; conditions: mice; cited from earlier work
[14] = isolated guinea pig right atrium, 37° C., 60 min contact, histamine agonist, read-out: pA2 (converted)
[15] = 3H-tiotidine, guinea pig cerebral cortex membranes, read-out: pKi cortex (converted)
[16] = dimaprit stimulated cyclic AMP accumulation, guinea pig hippocampal slices, read-out: pKi (converted)

Kb [1, 14] [nM] | Ki [2, 15] [nM] | Structure (SMILES) | also measured
63.1 | 25.1 | c1cc(CN2CCCCC2)cc(OCCCNc2nc3ccccc3[nH]2)c1 [Description 1, 2-[3-[3-(Piperidinomethyl)phenoxy]propylamino]benzimidazole] | Ki [3, 16]: 37.2 nM
63.1 | 79.4 | c1cc(CN2CCCCC2)cc(OCCCNc2nc3ccccc3o2)c1 [Example 1, 2-[3-[3-(Piperidinomethyl)phenoxy]propylamino]benzoxazole] | Ki [3, 16]: 21.9 nM; doses protecting against maximal electroshock seizures [4]: 30 to 100 mg/kg; doses protecting against leptazol-induced tonic extensor spasm [5]: 10 to 100 mg/kg
631 | 12.6 | c1cc(CN2CCCCC2)cc(OCCCNc2ccc3ccccc3n2)c1 [Example 3, 2-[3-[3-(Piperidinomethyl)phenoxy]propylamino]quinoline] | Ki [3, 16]: 10.7 nM
2000 | 3160 | c1cnc(NCCCOc2cccc(CN3CCCCC3)c2)nc1 [Example 4, 2-[3-[3-(Piperidinomethyl)phenoxy]propylamino]pyrimidine] | Ki [3, 16]: 22900 nM
 |  | c1cc(CN2CCCCC2)cc(OCCCNc2nc3ccccc3s2)c1 [Example 5, 2-[3-[3-(Piperidinomethyl)phenoxy]propylamino]benzthiazole] | Kb [1]: 25.1 nM; Ki [2]: 79.4 nM; Ki [3]: 15.8 nM; doses protecting against maximal electroshock seizures [4]: 30 to 100 mg/kg; doses protecting against leptazol-induced tonic extensor spasm [5]: 10 to 30 mg/kg; antagonism of pial artery dilatation induced by histamine ([6]; intravenous): antagonised the pial artery dilatation; antagonism of pial artery dilatation induced by histamine ([6]; locally applied): antagonised the pial artery dilatation; logP [7]: 1.46; Δ log P [8]: 1.74
794 | 100 | c1ccc(NCCCOc2cccc(CN3CCCCC3)c2)nc1 [Example 6, 2-[3-[3-(Piperidinomethyl)phenoxy]propylamino]pyridine] | Ki [3, 16]: 56.2 nM; doses protecting against maximal electroshock seizures [4]: 30 to 100 mg/kg; doses protecting against leptazol-induced tonic extensor spasm [5]: 30 to 100 mg/kg; logP [7]: 2.88
794 | 501 | COc1cccc(NCCCOc2cccc(CN3CCCCC3)c2)n1 [Example 7, 2-[3-[3-(Piperidinomethyl)phenoxy]propylamino]-6-methoxypyridine] | 
2000 | 200 | CCOc1cc(NCCCOc2cccc(CN3CCCCC3)c2)nc2ccccc12 [Example 8, 2-[3-[3-(Piperidinomethyl)phenoxy]propylamino]-4-ethoxyquinoline] | 
39.8 | 63.1 | c1cc(CN2CCCCC2)cc(OCCCNc2nccs2)c1 [Example 9, 2-[3-[3-(Piperidinomethyl)phenoxy]propylamino]thiazole] | Ki [3, 16]: 63.1 nM
7940 | 31.6 | Cn1c(NCCCOc2cccc(CN3CCCCC3)c2)nc2ccccc21 [Example 10, 2-[3-[3-(Piperidinomethyl)phenoxy]propylamino]-1-methylbenzimidazole] | Ki [3, 16]: 2 nM
 | 794 | c1cncc(NCCCOc2cccc(CN3CCCCC3)c2)c1 [Example 11, 3-[3-[3-(Piperidinomethyl)phenoxy]propylamino]pyridine] | 
398 | 39.8 | c1cc(CN2CCCCC2)cc(OCCCNc2nccc3ccccc23)c1 [Example 12, 1-[3-[3-(Piperidinomethyl)phenoxy]propylamino]isoquinoline] | 
2510 | 126 | Cc1nc(NCCCOc2cccc(CN3CCCCC3)c2)sc1C [Example 14, 2-[3-[3-(Piperidinomethyl)phenoxy]propylamino]-4,5-dimethylthiazole] | 
6310 | 794 | c1cc(CN2CCCCC2)cc(OCCNc2nc3ccccc3s2)c1 [Example 16, 2-[2-[3-(Piperidinomethyl)phenoxy]ethylamino]benzthiazole] | 
126 | 158 | c1cc(CN2CCCCC2)cc(OCCCCNc2nc3ccccc3s2)c1 [Example 17, 2-[4-[3-(Piperidinomethyl)phenoxy]butylamino]benzthiazole] | 
631 | 39.8 | COc1cccnc1NCCCOc1cccc(CN2CCCCC2)c1 [Example 18, 2-[3-[3-(Piperidinomethyl)phenoxy]propylamino]-3-methoxypyridine] | 
20 | 25.1 | c1cc(CN2CCCCC2)cc(OCCCNc2ncnc3ccccc23)c1 [Example 19, 4-[3-[3-(Piperidinomethyl)phenoxy]propylamino]quinazoline] | 
1260 | 631 | CN(C)Cc1cccc(OCCCNc2nc3ccccc3s2)c1 [Example 21, 2-[3-[3-(Dimethylaminomethyl)phenoxy]propylamino]benzthiazole] | 
100 | 316 | c1cc(CN2CCCC2)cc(OCCCNc2nc3ccccc3s2)c1 [Example 22, 2-[3-[3-(Pyrrolidinomethyl)phenoxy]propylamino]benzthiazole] | 
316 | 1260 | c1cc(CN2CCCCCC2)cc(OCCCNc2nc3ccccc3s2)c1 [Example 23, 2-[3-[3-(Hexahydroazepinomethyl)phenoxy]propylamino]benzthiazole] | 
25100 | 398 | Cc1cc2nc(NCCCOc3cccc(CN4CCCCC4)c3)sc2cc1C [Example 24, 2-[3-[3-(Piperidinomethyl)phenoxy]propylamino]-5,6-dimethylbenzthiazole] | 
20000 | 3980 | c1cc(CN2CCCCC2)cc(OCCc2nc3ccccc3[nH]2)c1 [Example 26, 2-[2-[3-(Piperidinomethyl)phenoxy]ethyl]-1H-benzimidazole] | 
316 | 100 | c1cc(CN2CCCCC2)cc(OCCCc2nc3ccccc3[nH]2)c1 [Example 27, 2-[3-[3-(Piperidinomethyl)phenoxy]propyl]-1H-benzimidazole] | 
126 | 39.8 | c1cc(CN2CCCCC2)cc(OCCCCc2nc3ccccc3[nH]2)c1 [Example 28, 2-[4-[3-(Piperidinomethyl)phenoxy]butyl]-1H-benzimidazole] | 
 |  | CN(C)CCCN1c2ccccc2CCc2ccccc21 [Imipramine] | molar ratio of compound in the brain to compound in the blood [9]: 3.5
 |  | CN/C(=N/CCSCc1nc[nH]c1C)NC#N [cimetidine, reference compound] | antagonism of pial artery dilatation induced by histamine ([6]; intravenous): failed to antagonise; antagonism of pial artery dilatation induced by histamine [10]: antagonises the pial artery dilatation
 |  | O=C1NC(=O)C(c2ccccc2)(c2ccccc2)N1 [phenytoin sodium] | antagonism of maximal electroshock (MES) convulsions, known drug [11]: antagonise; antagonism of leptazol (pentylenetetrazol) convulsions, known drug [12]: antagonise; antagonism of bicuculline convulsions, known drug [13]: antagonise

Structure (SMILES) | Kb [1, 14] [nM] | Ki [2, 15] [nM] | also measured
c1cc(CN2CCCCC2)cc(OCCc2c[nH]cn2)c1 [Example 25, 4(5)-[2-[3-(Piperidinomethyl)phenoxy]ethyl]imidazole] | 25100 | 794 | 
